Results published in patent US7109244B2, “Compositions and methods comprising long-chain, straight-chain 2-amino-3-hydroxyalkanes” (priority 1997, dated 2006).

How the values were obtained:
H9 = assay: expanded in vitro screen, H9; assay type: cell-based; conditions: Homo sapiens; H9, Lymphoma
Protocol: (§1) An expanded in vitro screen was performed of spisulosine 285 against a series of different cell lines.

CV-1 = assay: expanded in vitro screen, CV-1 normal cell line; assay type: cell-based, monkey; conditions: Primates, CV-1, Kidney fibroblasts
Protocol: as §1

ARH77 = assay: expanded in vitro screen, ARH77; assay type: cell-based; conditions: Homo sapiens, ARH-77; ARH77, Leukemia
Protocol: as §1

A-549 = assay: in vitro tumor cell line activity, A-549; assay type: cell-based
FADU = assay: expanded in vitro screen, FADU; assay type: cell-based; conditions: Homo sapiens, Pharnynx, solid
Protocol: as §1

[1] = tested on: human prostate cancer (PC-3); assay: xenograft model of human prostate cancer; assay type: in vivo; conditions: for % T/C / Comments: intraperitoneal
Protocol: Spisulosine 285 was tested in in vivo studies against xenograft models of human prostate cancer (PC-3) and human renal cancer (MRI-H-121). These models use subcutaneously implanted solid human tumors that grow and increase in volume over time. The mean volume of tumor growth in control animals provides the basis for comparison. […] A level of activity that is less than 40% T/C is considered statistically significant. The doses of spisulosine used were given at the maximum tolerated, non lethal dose (MTD), ½ MTD and ¼ MTD. Delivery of the drug was by the intraperitoneal route.

K562 = assay: expanded in vitro screen, K562; assay type: cell-based; conditions: Homo sapiens; K562, Leukemia
Protocol: as §1

[2] = tested on: L1210 murine lymphocytic leukemia cells; assay: L1210 morphological change (pointed cells); assay type: cell-based; conditions: for % Pointed cells: percent of the living cells; for % Pointed Cells 1st: 27 h
Protocol: Referring to FIG. 1, in the L1210 assay some of the cells changed from being spherical (FIG. 1A) to ovoid with long points approximately […] apart (FIG. 1B). Several other forms have also been observed in assays of these extracts, including cells with points not […] apart (FIG. 1C), cells with more than two points (FIG. 1D), cells with a bulge (FIG. 1E) and cells with a bulge replacing one of the points (FIG. 1F). However, the form with two sharp, opposing points was by far the predominant and characteristic one observed. This type of morphological change had not previously been observed during the screening of over 1000 marine extracts.
As discussed above, the spisulosines caused a distinct morphological change in L1210 leukemia cells, in addition to cytotoxicity. This bioactivity, which was recorded as the percentage of living cells in which altered morphology was observed, could be observed sometimes as early as 13 h after the start of the assay and reached a maximum at 50–60 h, after which it decreased. […] The morphological effect was usually measured 30–35 h after the start of the assay and again about 24 h later, while the cytotoxicity was determined when the number of cells in the controls reached approximately 8000, usually in 3 days after the assay was begun. It should be noted that the pointed cells were live cells and that they were counted as such for the cytotoxicity reading. Also, assays in which 100% cytotoxicity was recorded may still have contained live cells (<0.5%) which may or may not have been pointed. All morphologically-changed cells were counted in the pointed cell percentage.
Morphologically-changed cells (FIGS. 1A–1F) were counted as living cells when determining the percent inhibition of growth. Morphological changes were assessed throughout the assay period. The percentage of pointed cells was determined by counting the number of altered cells in approximately 60 living cells. This percentage varied with the length of time the assay had been running. It generally reached its maximum about 50 hours after the start of the assay, but pointed cells could be observed as early as 13 hours after the start of the assay and could usually still be seen when the percent growth inhibition was measured. The percentages of pointed cells were often counted both after about 35 and after 55 hours. The time that this measurement was made is indicated with the data.

786-0 = assay: expanded in vitro screen, 786-0; assay type: cell-based; conditions: Homo sapiens; 786-0, Renal, solid
Protocol: as §1

SW684 = assay: expanded in vitro screen, SW684; assay type: cell-based; conditions: Homo sapiens; SW684, Fibrosarcoma
Protocol: as §1

MEL-28 = assay: in vitro tumor cell line activity, MEL-28; assay type: cell-based
Rho protein = Rho protein electrophoresis / Western blot and subcellular fractionation (Example C); assay type: cell-based; conditions: 0.5 mM, 20 hour
Protocol: The small GTP binding protein Rho is involved in the formation of actin-myosin “stress fibers” (Hall, A., Science, 279, 1998, p 509–514). Therefore, the electrophoretic mobility and cellular distribution of Rho was analyzed in cells treated with spisulosine 285.
FIG. 5 is an electrophoretogram of Example C. In panel A, equivalent amounts of protein from a cell extract from untreated (a) or from 0.5 mM spisulosine 285 treated (20 hour) cells (b) were fractionated by gel electrophoresis and blotted onto nitrocellulose paper to analyze the amount of the Rho protein.
In panel B the experiment was carried out as above, except that the homogenate was fractionated into a particulate (membrane, “M”) fraction and soluble (“S”) fraction.
Subcellular fractionation was carried out by placing cells in a hypotonic buffer (0.25 M sucrose, 20 mM HEPES pH 7.4, 2 mM EDTA, 1 mM PMSF, […] aprotinin, leupeptine and pestatine), and lysing them with a Dounce. The homogenate was first centrifuged at 750 g for 5 minutes to remove nuclei and unbroken cells, and the supernatant was further centrifuged at 30,000 g for 1 hour (4° C.) to isolate a pelleted particulate fraction (putative membrane fraction) and a supernatant. The different fractions were characterised by electrophoresis and Western Blotting using an antibody against the Rho protein.

Vero cells = assay: microfilament and microtubule staining in Vero cells (Example B); assay type: cell-based; conditions: 0.5 mM, 4 hours
Protocol: In order to identify the organization of the microfilament and microtubule organization in cells treated with spisulosine 285, cells were stained with phalloidin to detect actin polymers, and an antitubulin antibody to detect tubulin.
Vero cells were incubated in the presence (panel b, d) or absence (a, c) of 0.5 mM spisulosine 285 for 4 hours. Cells grown in coverslips were fixed with methanol at −20° C. (for tubulin antibody) or with 4% paraformaldehyde in phosphate buffered saline PBS (w/v) for phalloidin incubation. In the second case the cells were washed with 0.2% Triton X100 in PBS. The coverslips were washed with PBS and incubated for 1 hour at room temperature with the tubulin antibody (diluted 1/1000 in PBS) or with phalloidin (1 mg/ml). After washing with PBS the coverslips incubated with the tubulin antibody were overlaid with fluorescein or Texas red-labelled goat antimouse antibodies (diluted 1:50 in PBS). The coverslips were mounted with Mowiol and stored in the dark at 4° C. until observation.

HT-29 = assay: expanded in vitro screen, HT-29; assay type: cell-based; conditions: Homo sapiens; HT-29, Colon, solid
Protocol: as §1

IC50 (H9): 0.031 nM | IC50 (ARH77): 0.0136 nM | IC50 (FADU): 0.00499 nM | IC50 (K562): 0.0157 nM | IC50 (786-0): 0.00275 nM | IC50 (SW684): 1.05 nM | IC50 (HT-29): 0.00256 nM
SMILES: CCCCCCCCCCCCCCC[C@@H](O)[C@H](C)N [Spisulosine 285, (2S,3R)-2-Amino-3-octadecanol]
IC50 (CV-1): 0.0276 nM | active against tumor cell line in vitro (concentration) (A-549): 0.05 mg/mL | effect on tumour size (in words) ([1]; at higher doses): significantly reducing the tumour size | % T/C ([1]; total dose 2.499 mg/kg, day 15): 223% | % T/C ([1]; total dose 5.010 mg/kg, day 11): −1% | Comments ([1]; total dose 5.010 mg/kg, day 11): stasis (complete remission) | % T/C ([1]; total dose 9.990 mg/kg, day 11): −21% | Comments ([1]; total dose 9.990 mg/kg, day 11): stasis (complete remission) | L1210 morphological alteration / pointed cell activity (in words) [2]: pointed cell activity | % Pointed cells ([2]; 0.01 μg/ml): 1% | % Pointed cells ([2]; 0.05 μg/ml): 71% | % Pointed Cells 1st ([2]; 0.1 μg/ml): 33% | % Pointed cells ([2]; 0.1 μg/ml): 62% | % Pointed Cells 1st ([2]; 0.5 μg/ml): 56% | % Pointed cells ([2]; 0.5 μg/ml): 97% | % Pointed Cells 1st ([2]; 1 μg/ml): 64% | % Pointed Cells 1st ([2]; 5 μg/ml): ad | active against tumor cell line in vitro (concentration) (MEL-28): 0.05 mg/mL | amount or mobility of Rho (Rho protein): No significant change | proportion of Rho associated with the particulate fraction (Rho protein): decrease | actin (phalloidin stain) (Vero cells): dramatic decrease in actin | microtubule network (tubulin antibody) (Vero cells): remains in a polymerised form
